{"source": "ChEMBL document CHEMBL3045719", "about": "“Insecticidal and Neuroblocking Activities toward American Cockroach (Periplaneta americana L.) of Imidacloprid Metabolites, 5-Hydroxy-, 4,5-Dihydroxy- and 4,5-Dehydroimidacloprid” (J Pestic Sci, 2004)", "key": {"[1]": {"test": "Half life in Apis mellifera (honey bee)", "assay_type": "ADME, organism-based", "details": "in vivo"}, "[2]": {"tested_on": "Periplaneta americana", "test": "Insecticidal activity against adult form of Periplaneta americana (American cockroach) assessed as paralysis at 1.1 nmol injected into abdominal region measured after 8 hr", "assay_type": "functional, organism-based"}, "[3]": {"tested_on": "Periplaneta americana", "test": "Insecticidal activity against adult form of Periplaneta americana (American cockroach) assessed as paralysis at 1.1 nmol injected into abdominal region measured after 13 hr", "assay_type": "functional, organism-based"}, "[4]": {"tested_on": "Periplaneta americana", "test": "Insecticidal activity against adult form of Periplaneta americana (American cockroach) assessed as paralysis at 1.1 nmol injected into abdominal region measured after 1 hr", "assay_type": "functional, organism-based"}, "[5]": {"tested_on": "Periplaneta americana", "test": "Insecticidal activity against adult form of Periplaneta americana (American cockroach) assessed as paralysis at 1.1 nmol injected into abdominal region measured after 3 hr", "assay_type": "functional, organism-based"}, "[6]": {"tested_on": "Periplaneta americana", "test": "Insecticidal activity against adult form of Periplaneta americana (American cockroach) assessed as concentration required for neuroblock in excised central nerve cord", "assay_type": "functional"}, "[7]": {"tested_on": "Periplaneta americana", "test": "Insecticidal activity against adult form of Periplaneta americana (American cockroach) assessed as paralysis at 1.1 nmol injected into abdominal region measured after 24 hr", "assay_type": "functional, organism-based"}, "[8]": {"tested_on": "Periplaneta americana", "test": "Insecticidal activity against adult form of Periplaneta americana (American cockroach) assessed as paralysis at 1.1 nmol injected into abdominal region measured after 2 hr", "assay_type": "functional, organism-based"}, "[9]": {"tested_on": "Periplaneta americana", "test": "Insecticidal activity against adult form of Periplaneta americana (American cockroach) assessed as paralysis at 1.1 nmol injected into abdominal region measured after 32 hr", "assay_type": "functional, organism-based"}, "[10]": {"tested_on": "Periplaneta americana", "test": "Insecticidal activity against adult form of Periplaneta americana (American cockroach) assessed as paralysis compound injected into abdominal region measured after 24 hr", "assay_type": "functional"}, "[11]": {"tested_on": "Periplaneta americana", "test": "Ratio of imidacloprid efficacy to compound efficacy adult form of Periplaneta americana (American cockroach) assessed as concentration required for neuroblock in excised central nerve cord", "assay_type": "functional"}, "[12]": {"tested_on": "Periplaneta americana", "test": "Insecticidal activity against adult form of Periplaneta americana (American cockroach) assessed as paralysis at 8.4 nmol injected into abdominal region measured after 13 hr", "assay_type": "functional, organism-based"}, "[13]": {"tested_on": "Periplaneta americana", "test": "Ratio of imidacloprid MLD to compound MLD for adult form of Periplaneta americana (American cockroach) assessed as paralysis compound injected into abdominal region measured after 24 hr", "assay_type": "functional"}, "[14]": {"tested_on": "Periplaneta americana", "test": "Insecticidal activity against adult form of Periplaneta americana (American cockroach) assessed as paralysis at 8.4 nmol injected into abdominal region measured after 8 hr", "assay_type": "functional, organism-based"}, "[15]": {"tested_on": "Periplaneta americana", "test": "Insecticidal activity against adult form of Periplaneta americana (American cockroach) assessed as paralysis at 8.4 nmol stored at 4 degC for 10 days injected into abdominal region measured after 2 hr", "assay_type": "functional, organism-based"}, "[16]": {"tested_on": "Periplaneta americana", "test": "Insecticidal activity against adult form of Periplaneta americana (American cockroach) assessed as paralysis at 8.4 nmol injected into abdominal region measured after 1 hr", "assay_type": "functional, organism-based"}, "[17]": {"tested_on": "Periplaneta americana", "test": "Insecticidal activity against adult form of Periplaneta americana (American cockroach) assessed as paralysis at 8.4 nmol injected into abdominal region measured after 24 hr", "assay_type": "functional, organism-based"}, "[18]": {"tested_on": "Periplaneta americana", "test": "Insecticidal activity against adult form of Periplaneta americana (American cockroach) assessed as paralysis at 8.4 nmol stored at 4 degC for 10 days injected into abdominal region measured after 1 hr", "assay_type": "functional, organism-based"}, "[19]": {"tested_on": "Periplaneta americana", "test": "Insecticidal activity against adult form of Periplaneta americana (American cockroach) assessed as paralysis at 8.4 nmol injected into abdominal region measured after 32 hr", "assay_type": "functional, organism-based"}, "[20]": {"tested_on": "Periplaneta americana", "test": "Insecticidal activity against adult form of Periplaneta americana (American cockroach) assessed as paralysis at 8.4 nmol stored at 4 degC for 10 days injected into abdominal region measured after 3 hr", "assay_type": "functional, organism-based"}, "[21]": {"tested_on": "Periplaneta americana", "test": "Insecticidal activity against adult form of Periplaneta americana (American cockroach) assessed as paralysis at 8.4 nmol injected into abdominal region measured after 2 hr", "assay_type": "functional, organism-based"}, "[22]": {"tested_on": "Periplaneta americana", "test": "Insecticidal activity against adult form of Periplaneta americana (American cockroach) assessed as paralysis at 8.4 nmol injected into abdominal region measured after 3 hr", "assay_type": "functional, organism-based"}, "[23]": {"test": "Lipophilicity, log P of the compound", "assay_type": "physicochemical", "details": "octanol/water"}, "[24]": {"tested_on": "Aphis gossypii", "test": "Ratio of imidacloprid efficacy to compound efficacy for po dosed Aphis gossypii (cotton aphid)", "assay_type": "functional"}, "[25]": {"tested_on": "Periplaneta americana", "test": "Insecticidal activity against adult form of Periplaneta americana (American cockroach) assessed as paralysis at 19 nmol injected into abdominal region measured after 13 hr", "assay_type": "functional, organism-based"}, "[26]": {"tested_on": "Myzus persicae", "test": "Ratio of imidacloprid efficacy to compound efficacy for po dosed Myzus persicae (green peach aphid)", "assay_type": "functional"}, "[27]": {"tested_on": "Periplaneta americana", "test": "Insecticidal activity against adult form of Periplaneta americana (American cockroach) assessed as paralysis at 19 nmol injected into abdominal region measured after 1 hr", "assay_type": "functional, organism-based"}, "[28]": {"tested_on": "Periplaneta americana", "test": "Insecticidal activity against adult form of Periplaneta americana (American cockroach) assessed as paralysis at 19 nmol injected into abdominal region measured after 8 hr", "assay_type": "functional, organism-based"}, "[29]": {"tested_on": "Periplaneta americana", "test": "Insecticidal activity against adult form of Periplaneta americana (American cockroach) assessed as paralysis at 19 nmol injected into abdominal region measured after 3 hr", "assay_type": "functional, organism-based"}, "[30]": {"target": "T1, Nicotinic acetylcholine receptor alpha 5 subunit (Musca domestica) (UniProt A9XFY4)", "T1 sequence (whole entry)": "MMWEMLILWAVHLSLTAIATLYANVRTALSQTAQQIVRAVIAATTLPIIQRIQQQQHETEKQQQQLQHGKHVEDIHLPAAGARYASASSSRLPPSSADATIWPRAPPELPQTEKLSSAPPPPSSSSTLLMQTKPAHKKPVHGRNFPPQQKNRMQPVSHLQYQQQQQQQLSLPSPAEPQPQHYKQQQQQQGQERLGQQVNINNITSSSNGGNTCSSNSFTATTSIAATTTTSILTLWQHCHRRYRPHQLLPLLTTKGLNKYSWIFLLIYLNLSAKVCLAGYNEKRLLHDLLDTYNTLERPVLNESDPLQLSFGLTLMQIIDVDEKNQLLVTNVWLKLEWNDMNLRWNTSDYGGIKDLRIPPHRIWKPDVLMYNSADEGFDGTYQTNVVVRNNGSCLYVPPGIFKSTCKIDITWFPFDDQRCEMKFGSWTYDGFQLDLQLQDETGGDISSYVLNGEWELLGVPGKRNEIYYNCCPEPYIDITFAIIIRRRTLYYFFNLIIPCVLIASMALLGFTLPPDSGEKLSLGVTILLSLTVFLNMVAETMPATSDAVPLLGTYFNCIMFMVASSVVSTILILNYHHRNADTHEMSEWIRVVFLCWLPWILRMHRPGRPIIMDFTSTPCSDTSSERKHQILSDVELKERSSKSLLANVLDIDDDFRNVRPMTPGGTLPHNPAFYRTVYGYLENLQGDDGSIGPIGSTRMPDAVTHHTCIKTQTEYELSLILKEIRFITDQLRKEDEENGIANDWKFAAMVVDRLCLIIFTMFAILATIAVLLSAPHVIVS", "test": "Binding affinity to nicotinic acetylcholine receptor in Musca domestica (house fly) head membrane relative to imidacloprid"}, "[31]": {"tested_on": "Periplaneta americana", "test": "Insecticidal activity against adult form of Periplaneta americana (American cockroach) assessed as paralysis at 19 nmol injected into abdominal region measured after 2 hr", "assay_type": "functional, organism-based"}, "[32]": {"tested_on": "Bemisia tabaci", "test": "Ratio of imidacloprid efficacy to compound efficacy for po dosed Bemisia tabaci (sweet potato whitefly)", "assay_type": "functional"}, "[33]": {"tested_on": "Periplaneta americana", "test": "Insecticidal activity against adult form of Periplaneta americana (American cockroach) assessed as paralysis at 19 nmol injected into abdominal region measured after 24 hr", "assay_type": "functional, organism-based"}, "[34]": {"tested_on": "Periplaneta americana", "test": "Insecticidal activity against adult form of Periplaneta americana (American cockroach) assessed as paralysis at 19 nmol injected into abdominal region measured after 32 hr", "assay_type": "functional, organism-based"}, "[35]": {"tested_on": "Periplaneta americana", "test": "Insecticidal activity against adult form of Periplaneta americana (American cockroach) assessed as paralysis at 250 nmol injected into abdominal region measured after 1 to 32 hr", "assay_type": "functional, organism-based"}}, "note": "Active and inactive are the calls of the source. No cut-off for these calls is given here.", "data": [{"smiles": "O=[N+]([O-])NC1=NCCN1Cc1ccc(Cl)nc1", "note": "[IMIDACLOPRID]", "values": [{"measurement": "half-life", "setting": "[1]", "result": 4.5, "unit": "h"}]}, {"smiles": "O=[N+]([O-])/N=C1\\NCCN1Cc1ccc(Cl)nc1", "note": "[IMIDACLOPRID]", "values": [{"measurement": "Activity", "setting": "[2]", "result": "Active"}, {"measurement": "Activity", "setting": "[3]", "result": "Active"}, {"measurement": "Activity", "setting": "[4]", "result": "Active"}, {"measurement": "Activity", "setting": "[5]", "result": "Active"}, {"measurement": "Activity", "setting": "[6]", "result": 2.3, "unit": "µM"}, {"measurement": "Activity", "setting": "[7]", "result": "Active"}, {"measurement": "Activity", "setting": "[8]", "result": "Active"}, {"measurement": "Activity", "setting": "[9]", "result": "inactive"}, {"measurement": "MLD", "setting": "[10]", "result": 1.1, "unit": "nmol"}]}, {"smiles": "O=[N+]([O-])/N=C1\\NCC(O)N1Cc1ccc(Cl)nc1", "note": "(centres undefined) [5-HYDROXYIMIDACLOPRID]", "values": [{"measurement": "Ratio", "setting": "[11]", "result": 20}, {"measurement": "Activity", "setting": "[12]", "result": "Active"}, {"measurement": "Ratio", "setting": "[13]", "result": 10}, {"measurement": "Activity", "setting": "[14]", "result": "Active"}, {"measurement": "Activity", "setting": "[15]", "result": "Active"}, {"measurement": "Activity", "setting": "[6]", "result": 150, "unit": "µM"}, {"measurement": "Activity", "setting": "[16]", "result": "inactive"}, {"measurement": "Activity", "setting": "[17]", "result": "Active"}, {"measurement": "Activity", "setting": "[18]", "result": "Active"}, {"measurement": "Activity", "setting": "[19]", "result": "inactive"}, {"measurement": "Activity", "setting": "[20]", "result": "Active"}, {"measurement": "Activity", "setting": "[21]", "result": "Active"}, {"measurement": "Activity", "setting": "[22]", "result": "Active"}, {"measurement": "logP", "setting": "[23]", "result": 8}, {"measurement": "MLD", "setting": "[10]", "result": 11, "unit": "nmol"}]}, {"smiles": "O=[N+]([O-])Nc1nccn1Cc1ccc(Cl)nc1", "note": "[DEHYDROIMIDACLOPRID]", "values": [{"measurement": "Ratio", "setting": "[11]", "result": 20}, {"measurement": "Ratio", "setting": "[13]", "result": 10}, {"measurement": "Ratio", "setting": "[24]", "result": ">10"}, {"measurement": "Activity", "setting": "[25]", "result": "Active"}, {"measurement": "Ratio", "setting": "[26]", "result": ">10"}, {"measurement": "Activity", "setting": "[27]", "result": "Active"}, {"measurement": "Activity", "setting": "[6]", "result": 49, "unit": "µM"}, {"measurement": "Activity", "setting": "[28]", "result": "Active"}, {"measurement": "Activity", "setting": "[29]", "result": "Active"}, {"measurement": "Ratio", "setting": "[30]", "result": 3}, {"measurement": "Activity", "setting": "[31]", "result": "Active"}, {"measurement": "Ratio", "setting": "[32]", "result": ">10"}, {"measurement": "Activity", "setting": "[33]", "result": "Active"}, {"measurement": "Activity", "setting": "[34]", "result": "Active"}, {"measurement": "logP", "setting": "[23]", "result": 0.45}, {"measurement": "MLD", "setting": "[10]", "result": 19, "unit": "nmol"}]}, {"smiles": "O=[N+]([O-])/N=C1\\NC(O)C(O)N1Cc1ccc(Cl)nc1", "note": "(centres undefined) [4,5-DIHYDROXYIMIDACLOPRID]", "values": [{"measurement": "Activity", "setting": "[6]", "result": ">370", "unit": "µM"}, {"measurement": "Activity", "setting": "[35]", "result": "inactive"}, {"measurement": "MLD", "setting": "[10]", "result": ">250", "unit": "nmol"}]}]}
